The values below are quoted from earlier work in patent US20100310652A1, “COATED EXTENDED RELEASE PHARMACEUTICAL COMPOSITIONS OF LEVETIRACETAM” (Alembic Limited, priority 2007, published 2010).

Usually aqueous solubility stands for the concentration that dissolves in the medium under given conditions.

The conditions of data set [1]: highly permeable.
The conditions of data set [2]: in 15 minutes, three different pH media.

≈ marks a conversion by molar mass, not a printed value.

`CC[C@@H](C(N)=O)N1CCCC1=O` [Levetiracetam, (−)-(S)-α-ethyl-2-oxo-1-pyrrolidine acetamide]: the aqueous solubility was 1040 mg/mL (≈ 6110 mM). Also, in data set [1], the “permeability (F)” value is reported as above 90%. For the same molecule, the drug released result in data set [2] is “more than 85%”.
